Experimental data taken from the supplement of paper PMC10307832.

Tests used:
Test in all cases: relative viability (nuclei count vs DMSO), 5 days (fraction); higher = more cells survive
Bortezomib + Palbociclib = compound: CC(C)C[C@H](NC(=O)[C@H](Cc1ccccc1)NC(=O)c1cnccn1)B(O)O [Bortezomib] + CC(=O)c1c(C)c2cnc(Nc3ccc(N4CCNCC4)cn3)nc2n(C2CCCC2)c1=O [Palbociclib] (partner 0.5 µM)
Outline: (§1)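 Nuclei were stained with Hoechst during a one-step fixation (final 0.05% Triton X-100, 1% formaldehyde, 1 ug/ml Hoechst) carried out 5 days after dosing, then counted on 4× images. The cells, lung cancer lines in 1536-well plates, had been dosed by pin tool the day after seeding with one drug alone or a fixed anchor-drug dose plus five library-drug doses (not always all listed) in √10 steps. Relative viability is the nuclei count in treated wells divided by that in vehicle wells, and each value is the median of duplicate plates.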

[1] = compound: CC1=CC(=NN1)NC2=CC(=NC(=N2)/C=C/C3=CC=CC=C3)N4CCN(CC4)C + N=C(N)NC(=N)NCCc1ccccc1 [Phenformin] (partner 250 µM)
Outline: as §1

Bortezomib + Foretinib = compound: CC(C)C[C@H](NC(=O)[C@H](Cc1ccccc1)NC(=O)c1cnccn1)B(O)O [Bortezomib] + COc1cc2c(Oc3ccc(NC(=O)C4(C(=O)Nc5ccc(F)cc5)CC4)cc3F)ccnc2cc1OCCCN1CCOCC1 [Foretinib] (partner 0.25 µM)
Outline: as §1

Obatoclax + Pemetrexed = compound: COC1=CC(c2cc3ccccc3[nH]2)=N/C1=C\c1[nH]c(C)cc1C [Obatoclax] + Nc1nc2[nH]cc(CCc3ccc(C(=O)N[C@@H](CCC(=O)O)C(=O)O)cc3)c2c(=O)[nH]1 [Pemetrexed] (partner 0.2 µM)
Outline: as §1

Cell Line | relative viability (Bortezomib + Palbociclib; first compound 0.0002 µM) | relative viability (Bortezomib + Palbociclib; first compound 0.000632 µM) | relative viability (Bortezomib + Palbociclib; first compound 0.002 µM) | relative viability (Bortezomib + Palbociclib; first compound 0.006325 µM) | relative viability (Bortezomib + Palbociclib; first compound 0.02 µM) | relative viability ([1]; first compound 0.08 µM) | relative viability ([1]; first compound 0.253 µM) | relative viability ([1]; first compound 0.8 µM) | relative viability ([1]; first compound 2.53 µM) | relative viability ([1]; first compound 8 µM) | relative viability (Bortezomib + Foretinib; first compound 0.0002 µM) | relative viability (Bortezomib + Foretinib; first compound 0.000632 µM) | relative viability (Bortezomib + Foretinib; first compound 0.002 µM) | relative viability (Bortezomib + Foretinib; first compound 0.006325 µM) | relative viability (Bortezomib + Foretinib; first compound 0.02 µM) | relative viability (Obatoclax + Pemetrexed; first compound 0.01 µM) | relative viability (Obatoclax + Pemetrexed; first compound 0.03162 µM) | relative viability (Obatoclax + Pemetrexed; first compound 0.1 µM) | relative viability (Obatoclax + Pemetrexed; first compound 0.3162 µM) | relative viability (Obatoclax + Pemetrexed; first compound 1 µM)
HARA | 0.185 | 0.253 | 0.288 | 0.166 | 0.152 | 0.47 | 0.513 | 0.343 | 0.211 | 0.138 | 0.851 | 0.866 | 0.928 | 0.0716 | 0.0683 | 0.236 | 0.293 | 0.249 | 0.262 | 0.303
HCC-15 | 0.622 | 0.769 | 0.689 | 0.104 | 0.0904 | 0.472 | 0.452 | 0.434 | 0.107 | 0.0823 | 0.933 | 1.09 | 0.628 | 0.0908 | 0.0905 | 0.215 | 0.234 | 0.215 | 0.225 | 0.228
HCC-44 | 1.02 | 1.02 | 0.943 | 0.759 | 0.278 | 0.123 | 0.326 | 0.215 | 0.102 | 0.115 | – | – | – | – | – | 0.64 | 0.648 | 0.589 | 0.627 | 0.652
HCC-78 | 0.517 | 0.531 | 0.444 | 0.451 | 0.405 | 0.647 | 0.704 | 0.722 | 0.381 | 0.293 | 0.505 | 0.577 | 0.492 | 0.432 | 0.254 | 0.858 | 0.898 | 0.777 | 0.887 | 0.897
HCC-366 | 0.352 | 0.319 | 0.372 | 0.0727 | 0.0268 | 0.63 | 0.7 | 0.62 | 0.189 | 0.0317 | 0.917 | 0.889 | 1.01 | 0.627 | 0.0395 | 0.152 | 0.172 | 0.114 | 0.223 | 0.309
HCC-827 | 0.496 | 0.626 | 0.467 | 0.197 | 0.137 | 0.39 | 0.402 | 0.435 | 0.401 | 0.216 | 1.11 | 1.01 | 0.693 | 0.113 | 0.0926 | 0.241 | 0.275 | 0.247 | 0.17 | 0.278
HOP-62 | 0.437 | 0.492 | 0.307 | 0.0611 | 0.0516 | 0.713 | 0.758 | 0.688 | 0.459 | 0.26 | 0.972 | 1.07 | 0.863 | 0.134 | 0.0751 | 0.279 | 0.377 | 0.329 | 0.424 | 0.358
IA-LM | – | – | – | – | – | – | – | – | – | – | 1.26 | 1.1 | 1.16 | 0.0393 | 0.0142 | – | – | – | – | –
LC-2-ad | 0.534 | 0.499 | 0.504 | 0.278 | 0.161 | 0.554 | 0.571 | 0.501 | 0.251 | 0.172 | 0.913 | 0.899 | 0.814 | 0.244 | 0.203 | 0.268 | 0.285 | 0.261 | 0.264 | 0.285
NCI-H522 | 0.932 | 0.982 | 1.1 | 0.35 | 0.343 | 0.664 | 0.632 | 0.712 | 0.544 | 0.484 | – | – | – | – | – | 0.955 | 1 | 1.33 | 1.09 | 0.872
NCI-H596 | – | – | – | – | – | 0.767 | 0.807 | 0.627 | 0.608 | 0.259 | 0.88 | 0.892 | 0.613 | 0.17 | 0.138 | 0.516 | 0.504 | 0.459 | 0.467 | 0.429
NCI-H727 | 0.751 | 0.603 | 0.623 | 0.684 | 0.23 | 0.398 | – | 0.41 | 0.295 | 0.17 | 0.809 | 0.694 | 0.93 | 0.603 | 0.169 | – | – | – | – | –
NCI-H1299 | – | – | – | – | – | – | – | – | – | – | 1.09 | 1.06 | 1.17 | 0.416 | 0.121 | – | – | – | – | –
NCI-H1563 | – | – | – | – | – | 0.726 | 0.659 | 0.664 | 0.592 | 0.43 | 0.874 | 0.966 | 0.803 | 0.526 | 0.475 | 0.803 | 0.713 | 0.583 | 0.727 | 0.896
NCI-H1623 | – | – | – | – | – | 0.6 | 0.615 | 0.583 | 0.563 | 0.343 | 0.831 | 0.992 | 0.803 | 0.473 | 0.344 | – | – | – | – | –
NCI-H1648 | 0.208 | 0.296 | 0.258 | 0.261 | 0.275 | – | – | – | – | – | – | – | – | – | – | 0.758 | 0.746 | 1.06 | 0.64 | 0.782
NCI-H1703 | – | – | – | – | – | – | – | – | – | – | 0.324 | 0.342 | 0.211 | 0.153 | 0.176 | – | – | – | – | –
NCI-H1792 | 0.628 | 0.593 | 0.494 | 0.637 | 0.375 | 0.273 | 0.267 | 0.166 | 0.0557 | 0.0429 | – | – | – | – | – | 0.909 | 0.58 | 0.459 | 0.799 | 0.386
